Experiments:
Type in all cases: biochemical
α-synuclein fibrils [1] = biological target: T1, α-synuclein fibrils (Homo sapiens, UniProt P37840); experiment: Thioflavin T fluorometry, disruption of pre-formed α-synuclein fibrils (Example 12); conditions: 3 days; for % Inhibition α-synuclein (result ± S.D.), Thioflavin T fluorometry: 30 μg pre-fibrillized α-synuclein, 37° C.
T1 construct: purchased rPeptide
Protocol: (§1) In this assay, Thioflavin T binds specifically to α-synuclein fibrils, and this binding produces a fluorescence enhancement at 485 nm that is directly proportional to the amount of α-synuclein fibrils present. The higher the fluorescence, the greater the amount of α-synuclein fibrils present (Naki et al, Lab. Invest. 65:104-110, 1991; Levine III, Protein Sci. 2:404-410, 1993; Amyloid: Int. J. Exp. Clin. Invest. 2:1-6, 1995).
In this study, 30 μg of pre-fibrillized α-synuclein (rPeptide) was incubated at 37° C. for 3 days either alone or in the presence of compounds DC-0051-F1, F2, F3, F4, F5, F6 or EDTA (at α-synuclein:test compound weight ratios of 1:1, 1:0.1, 1:0.01 or 1:0.001). Following 3-days of co-incubation, 50 μl of each incubation mixture was transferred into a 96-well microtiter plate containing 150 μl of distilled water and 50 μl of a Thioflavin T solution (i.e. […] Thioflavin T in 250 mM phosphate buffer, pH 6.8). The fluorescence was read at 485 nm (444 nm excitation wavelength) using an ELISA plate fluorometer after subtraction with buffer alone or compound alone, as blank.

Aβ 1-42 = biological target: T2, Aβ 1-42 (Homo sapiens, UniProt P05067); experiment: SDS-PAGE/Western blot of Aβ 1-42 after incubation with compounds; conditions: 25 μM pre-fibrillized Aβ 1-42, 37° C., 3 days, filtrate of 0.2 μm filter, 6E10 antibody
T2 construct: 25 μM of pre-fibrillized Aβ 1-42 (Bachem Inc) was incubated at 37° C; purchased Bachem Inc
Protocol: The biological activity of the compounds provided herein as disruptors/inhibitors of Alzheimer's disease β-amyloid protein (Aβ) fibrils, type 2 diabetes IAPP fibrils and Parkinson's disease NAC fibrils was assessed by determining the efficacy of the compounds to cause a disassembly/disruption of pre-formed amyloid fibrils of Alzheimer's disease (i.e. consisting of Aβ 1-42 fibrils), IAPP fibrils and Parkinson's disease NAC fibrils.
In this latter study, triplicate samples of pre-fibiillized Aβ 1-42 (25 μM) was incubated at 37° C. for 3 days, alone or in the presence of the compounds or EDTA. Five micrograms of each sample was then filtered through a 0.2 μm filter. Protein recovered from the filtrate was then loaded, and ran on a 10-20% Tris-Tricine SDS-PAGE, blotted to nitrocellulose and detected using an Aβ-antibody (clone 6E10; Senetek).

Aβ 1-42 fibrils [2] = biological target: T3, Aβ 1-42 fibrils (Homo sapiens, UniProt P05067); experiment: Congo red binding assay, Aβ 1-42 fibrils (Example 11); conditions: 3-day incubation
T3 construct: purchased Bachem Inc
Protocol: (§2) In the Congo red binding assay, the ability of a test compound to alter amyloid (in this case, Aβ) binding to Congo red is quantified. In this assay, Aβ 1-42 and test compounds were incubated for 3 days and then vacuum filtered through a 0.2 μm filter. The amount of Aβ 1-42 retained in the filter was then quantitated following staining of the filter with Congo red. After appropriate washing of the filter, any lowering of the Congo red color on the filter in the presence of the test compound (compared to the Congo red staining of the amyloid protein in the absence of the test compound) was indicative of the test compound's ability to diminish/alter the amount of aggregated and congophilic Aβ.
In one study, the ability of Aβ fibrils to bind Congo red in the absence or presence of increasing amounts of the compounds or EDTA (at Aβ:test compound weight ratios of 1:1, 1:0.1, 1:0.01 or 1:0.001) was determined.

Aβ 1-42 fibrils [3] = biological target: T3, Aβ 1-42 fibrils; experiment: Thioflavin T fluorometry, disruption of pre-formed Aβ 1-42 fibrils (Example 7); conditions: for % inhibition of Aβ (Thioflavin T fluorometry): 25 μM pre-fibrillized Aβ 1-42, 37° C., 3 days (Table 3)
Protocol: as §1, with “assay” for “assay,”, “fibrillar amyloid,” for “α-synuclein fibrils,”, “amyloid” for “α-synuclein”, “formed.” for “present.”, “formed” for “present”, “al.,” for “al,”
(§3) Following 3 days of co-incubation, 50 μl of each incubation mixture was transferred into a 96-well microtiter plate containing 150 μl of distilled water and 50 μl of a Thioflavin T solution (i.e. 500 mM Thioflavin T in 250 mM phosphate buffer, pH 6.8). The fluorescence was read at 485 nm (444 nm excitation wavelength) using an ELISA plate fluorometer after subtraction with buffer alone or compound alone, as blank).

α-synuclein fibrils [4] = biological target: T1, α-synuclein fibrils; experiment: Congo red binding assay, α-synuclein fibrils (Example 12); conditions: 3-day incubation
Protocol: as §2, with “of a given test compound” for “of a test compound”, “this case, α-synuclein) binding to” for “this case, Aβ) binding to”, “this assay, α-synuclein and test” for “this assay, Aβ 1-42 and test”, “amount of α-synuclein retained in” for “amount of Aβ 1-42 retained in”, “and congophilic α-synuclein.” for “and congophilic Aβ.”
In one study, the ability of α-synuclein fibrils to bind Congo red in the absence or presence of increasing amounts of compounds DC-0051-F1, F2, F3, F4, F5, F6 and EDTA (at α-synuclein:test compound weight ratios of 1:1, 1:0.1, 1:0.01 or 1:0.001) was determined.

Aβ 1-42 fibrils [5] = biological target: T3, Aβ 1-42 fibrils; experiment: Thioflavin T fluorometry, disruption of pre-formed Aβ 1-42 fibrils (Example 11); conditions: 3 days; for % Inhibition Aβ (result ± S.D.), Thioflavin T fluorometry: 30 μg pre-fibrillized Aβ 1-42, 37° C.
Description: In one study, Thioflavin T fluorometry was used to determine the effects of the compounds, and of EDTA (as a negative control). In this assay Thioflavin T binds specifically to fibrillar amyloid, and this binding produces a fluorescence enhancement at 485 nm that is directly proportional to the amount of amyloid fibrils formed. The higher the fluorescence, the greater the amount of amyloid fibrils formed (Naki et al., Lab. Invest. 65:104-110, 1991; Levine III, Protein Sci. 2:404-410, 1993; Amyloid: Int. J. Exp. Clin. Invest. 2:1-6, 1995).
as §3, with “3-days” for “3 days”, “blank.” for “blank).”

[6] = Thioflavin T fluorometry, all concentrations tested
[7] = α-synuclein:test compound wt/wt ratio 1:0.001
[8] = α-synuclein:test compound wt/wt ratio 1:0.01
[9] = α-synuclein:test compound wt/wt ratio 1:0.1
[10] = α-synuclein:test compound wt/wt ratio 1:1
[11] = Aβ:test compound wt/wt ratio 1:0.001
[12] = Aβ:test compound wt/wt ratio 1:0.01
[13] = Aβ:test compound wt/wt ratio 1:0.1
[14] = Aβ:test compound wt/wt ratio 1:1

T3 sequence (P05067 672-713): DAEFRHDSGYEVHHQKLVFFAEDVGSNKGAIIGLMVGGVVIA
T2 sequence (P05067 672-713): as above

O=C(O)CN(CCN(CC(=O)O)CC(=O)O)CC(=O)O [EDTA]
disruption/disassembly of pre-formed α-synuclein fibrils, in words (α-synuclein fibrils [1]; [6]): no significant inhibition | % Inhibition α-synuclein (result ± S.D.), Thioflavin T fluorometry (α-synuclein fibrils [1]; [7]): 0.0 ± 4.11% | % Inhibition α-synuclein (result ± S.D.), Thioflavin T fluorometry (α-synuclein fibrils [1]; [8]): 0.0 ± 17.06% | % Inhibition α-synuclein (result ± S.D.), Thioflavin T fluorometry (α-synuclein fibrils [1]; [9]): 0.0 ± 6.97% | % Inhibition α-synuclein (result ± S.D.), Thioflavin T fluorometry (α-synuclein fibrils [1]; [10]): 0.0 ± 2.03% | detection of Aβ 1-42 monomers (~4 kilodalton band) after incubation (Aβ 1-42): detected as a ˜4 kilodalton band | % Inhibition Aβ (result ± S.D.), Congo red binding (Aβ 1-42 fibrils [2]; [11]): 1.2 ± 7.95% | % Inhibition Aβ (result ± S.D.), Congo red binding (Aβ 1-42 fibrils [2]; [12]): 8.4 ± 4.00% | % Inhibition Aβ (result ± S.D.), Congo red binding (Aβ 1-42 fibrils [2]; [13]): 0.0 ± 6.83% | % Inhibition Aβ (result ± S.D.), Congo red binding (Aβ 1-42 fibrils [2]; [14]): 8.4 ± 2.74% | inhibition of Aβ 1-42 fibril binding to Congo red, in words (Aβ 1-42 fibrils [2]; all concentrations tested): no significant inhibition | % inhibition of Aβ (Thioflavin T fluorometry) (Aβ 1-42 fibrils [3]; [11]): 10.3 +/− 10.81% | % inhibition of Aβ (Thioflavin T fluorometry) (Aβ 1-42 fibrils [3]; [12]): 0.0 +/− 2.26% | % inhibition of Aβ (Thioflavin T fluorometry) (Aβ 1-42 fibrils [3]; [13]): 0.0 +/− 1.18% | % inhibition of Aβ (Thioflavin T fluorometry) (Aβ 1-42 fibrils [3]; [14]): 5.0 +/− 11.39% | disruption/disassembly of preformed Aβ 1-42 fibrils, in words (Aβ 1-42 fibrils [3]; Thioflavin T fluorometry, all concentrations tested, 3 days): no significant inhibition/disruption | inhibition of α-synuclein fibril binding to Congo red, in words (α-synuclein fibrils [4]; all concentrations tested): no significant inhibition | % Inhibition α-synuclein (result ± S.D.), Congo red binding (α-synuclein fibrils [4]; [7]): 3.3 ± 1.85% | % Inhibition α-synuclein (result ± S.D.), Congo red binding (α-synuclein fibrils [4]; [8]): 2.9 ± 5.0% | % Inhibition α-synuclein (result ± S.D.), Congo red binding (α-synuclein fibrils [4]; [9]): 2.2 ± 5.16% | % Inhibition α-synuclein (result ± S.D.), Congo red binding (α-synuclein fibrils [4]; [10]): 0.0 ± 5.50% | % Inhibition Aβ (result ± S.D.), Thioflavin T fluorometry (Aβ 1-42 fibrils [5]; [11]): 0.0 ± 1.70% | % Inhibition Aβ (result ± S.D.), Thioflavin T fluorometry (Aβ 1-42 fibrils [5]; [12]): 2.4 ± 2.86% | % Inhibition Aβ (result ± S.D.), Thioflavin T fluorometry (Aβ 1-42 fibrils [5]; [13]): 0.0 ± 6.02% | % Inhibition Aβ (result ± S.D.), Thioflavin T fluorometry (Aβ 1-42 fibrils [5]; [14]): 0.0 ± 3.46% | disruption/disassembly of preformed Aβ 1-42 fibrils, in words (Aβ 1-42 fibrils [5]; [6]): no significant inhibition
